Measured values as given in patent US5733927A, “Salts of glucopyranose derivative and solutions of the same” (Ono Pharmaceutical Co., Ltd., priority 1992, dated 1998).
Converted amounts (≈) assume the structure as drawn. Counter-ions that a name gives are not always drawn.

Key:
[1] = Solubility in a mixture of water-ethanol (1:1) at 25° C. (Table 1); type: physicochemical
[2] = Solubility for injectable solvents / the solvent for the administration (stated in words); type: physicochemical; conditions: for solubility for the solvent for the administration: compared with the mixture of salts of the formula (B) and calcium salt
[3] = Pharmacological activity (lipid A-like activity; stated in words, no test described); conditions: sufficiency for use as a pharmaceutical agent

Solubility [1] | solubility for the solvent for the administration [2] | solubility for injectable solvents ([2]; injectable solvents) | Compound | pharmacological activity [3]
1.5 mg/mL | – | – | CCCCCCCCCCC[C@@H](CC(=O)N[C@H]1C(O)O[C@H](CO)[C@@H](OS(=O)(=O)O)[C@@H]1OC(=O)CCCCCCCCc1ccccc1)OC(=O)CCCCCCCCc1ccccc1 (mixture of isomers) [Reference example 5, mixture salt of calcium, sodium and magnesium of 2-deoxy-2-[(3S)-(9-phenylnonanoyloxy)tetradecanoyl]amino-3-O-(9-phenylnonanoyl)-4-O-sulfo-D-glucopyranose, reference compound] | –
212 mg/mL (≈ 231 mM) | very good solubility | – | CCCCCCCCCCC[C@@H](CC(=O)N[C@H]1C(O)O[C@H](CO)[C@@H](OS(=O)(=O)O)[C@@H]1OC(=O)CCCCCCCCc1ccccc1)OC(=O)CCCCCCCCc1ccccc1 (single isomer, unassigned) [Example 3] | –
> 270 mg/mL | very good solubility | – | CCCCCCCCCCC[C@@H](CC(=O)N[C@H]1C(O)O[C@H](CO)[C@@H](OS(=O)(=O)O)[C@@H]1OC(=O)CCCCCCCCc1ccccc1)OC(=O)CCCCCCCCc1ccccc1 (single isomer, unassigned) [Example 4] | –
– | – | very poor | CCCCCCCCCCC[C@@H](CC(=O)N[C@H]1C(O)O[C@H](CO)[C@@H](OS(=O)(=O)O)[C@@H]1OC(=O)CCCCCCCCc1ccccc1)OC(=O)CCCCCCCCc1ccccc1 (stereo partly drawn) [formula (Aa), 2-Deoxy-2-[(3S)-(9-phenylnonanoyloxy)tetradecanoyl]amino-3-O-(9-phenylnonanoyl)-4-O-sulfo-D-glucopyranose, reference compound] | sufficient pharmacological activity
